The values that follow come from US8975398B2, “NAMPT inhibitors” (AbbVie Inc., priority 2012, dated 2015).

The structures appear in SMILES notation.

In experiment [1] the test system is PC3 cells. Briefly: NAMPT Cell Proliferation Assay (Cell Titer Glo; also performed in the presence of 0.3 mM nicotinamide mononucleotide). Particulars: Homo sapiens, PC-3, 120 h, 5 days incubation, cell viability by Cell Titer Glo. The experiment is classed as cell-based. The gist of the method: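 PC3 cells were plated at 500 cells/well in RPMI with 10% heat-inactivated FBS, left to attach overnight, then given compounds in 10-fold dilutions from 10 μM to 1×10^−5 μM. After 5 days at 37° C and 5% CO2, viability was read by luminescence and IC50s came from sigmoidal fits of percent inhibition.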
In general terms: Cellular ATP, detected with luciferase, serves as a proxy for viable cell number.

Experiment [2] relates to experimental autoimmune encephalomyelitis (EAE). Particulars: model of T-cell mediated autoimmune disorders; Bruzzone, S et al. Plos One 4, e7897, 2009; cited from earlier work.
Experiment [3] relates to collagen-induced arthritis. Particulars: Busso, N. et al. Plos One 3, e2267, 2008; cited from earlier work.
In experiment [4] the test system is activated T cells. As to conditions: Busso, N. et al. Plos One 3, e2267, 2008; cited from earlier work.

For the compound `CC1CC1NC(=O)c1ccc(NC(=O)C2CN(c3cccnn3)C2)cc1` (stereo not shown) [Example 991, N-{4-[(2-methylcyclopropyl)carbamoyl]phenyl}-1-(pyridazin-3-yl)azetidine-3-carboxamide], the concentration for half-maximal inhibition (IC50) (usually the midpoint of a concentration-inhibition curve) in experiment [1] came to 0.76 µM.
Still for that read-out and setting: next, `O=C(NC1CCC1)c1ccc(NC(=O)C2CN(c3cccnn3)C2)cc1` [Example 992, N-[4-(cyclobutylcarbamoyl)phenyl]-1-(pyridazin-3-yl)azetidine-3-carboxamide]: 1.51 µM; `CC1(NC(=O)c2ccc(NC(=O)C3CN(c4cccnn4)C3)cc2)CC1` [Example 993, N-{4-[(1-methylcyclopropyl)carbamoyl]phenyl}-1-(pyridazin-3-yl)azetidine-3-carboxamide]: 0.809 µM; `COC(C)(C)CNC(=O)c1ccc(NC(=O)C2CN(c3cccnn3)C2)cc1` [Example 994, N-{4-[(2-methoxy-2-methylpropyl)carbamoyl]phenyl}-1-(pyridazin-3-yl)azetidine-3-carboxamide]: 0.059 µM.
In the case of `O=C(NCC1CC1)c1ccc(NC(=O)C2CN(c3cccnn3)C2)cc1` [Example 995, N-{4-[(cyclopropylmethyl)carbamoyl]phenyl}-1-(pyridazin-3-yl)azetidine-3-carboxamide], in experiment [1], the IC50 came out at 0.245 µM.
Same read-out and setting: next, `O=C(NC[C@H]1CCCO1)c1ccc(NC(=O)C2CN(c3cccnn3)C2)cc1` [Example 996, 1-(pyridazin-3-yl)-N-(4-{[(2R)-tetrahydrofuran-2-ylmethyl]carbamoyl}phenyl)azetidine-3-carboxamide]: 0.104 µM; `O=C(NCCC(F)(F)F)c1ccc(NC(=O)C2CN(c3cccnn3)C2)cc1` [Example 997, 1-(pyridazin-3-yl)-N-{4-[(3,3,3-trifluoropropyl)carbamoyl]phenyl}azetidine-3-carboxamide]: 0.0935 µM.
The same measure, in the same setting: the same measure for `CN1CCCC(NC(=O)c2ccc(NC(=O)C3CN(c4cccnn4)C3)cc2)C1` (stereo not shown) [Example 998, N-{4-[(1-methylpiperidin-3-yl)carbamoyl]phenyl}-1-(pyridazin-3-yl)azetidine-3-carboxamide]: 1.28 µM; for `CC1(CNC(=O)c2ccc(NC(=O)C3CN(c4cccnn4)C3)cc2)COC1` [Example 999, N-(4-{[(3-methyloxetan-3-yl)methyl]carbamoyl}phenyl)-1-(pyridazin-3-yl)azetidine-3-carboxamide]: 0.25 µM.
With `O=C(NC[C@@H]1CCCO1)c1ccc(NC(=O)C2CN(c3cccnn3)C2)cc1` [Example 1000, 1-(pyridazin-3-yl)-N-(4-{[(2S)-tetrahydrofuran-2-ylmethyl]carbamoyl}phenyl)azetidine-3-carboxamide], the IC50 in experiment [1] is 0.077 µM.
In the case of `O=C(NCC1CCOCC1)c1ccc(NC(=O)C2CN(c3cccnn3)C2)cc1` [Example 1001, 1-(pyridazin-3-yl)-N-{4-[(tetrahydro-2H-pyran-4-ylmethyl)carbamoyl]phenyl}azetidine-3-carboxamide], in experiment [1], the 50% inhibitory concentration (IC50) was determined as 0.0532 µM.
The same measure, in the same setting: the same measure for `O=C(NC1CCOCC1)c1ccc(NC(=O)C2CN(c3cccnn3)C2)cc1` [Example 1002, 1-(pyridazin-3-yl)-N-[4-(tetrahydro-2H-pyran-4-ylcarbamoyl)phenyl]azetidine-3-carboxamide]: 0.911 µM; for `CN1CCCC(CNC(=O)c2ccc(NC(=O)C3CN(c4cccnn4)C3)cc2)C1` (stereo not shown) [Example 1003, N-(4-{[(1-methylpiperidin-3-yl)methyl]carbamoyl}phenyl)-1-(pyridazin-3-yl)azetidine-3-carboxamide]: 1.07 µM.
On the same count and under the same terms, next, `O=C(NC1CC1)c1ccc(NC(=O)C2CN(c3cccnn3)C2)cc1` [Example 1004, N-[4-(cyclopropylcarbamoyl)phenyl]-1-(pyridazin-3-yl)azetidine-3-carboxamide]: 7.92 µM; `O=C(NC1CCCC1)c1ccc(NC(=O)C2CN(c3cccnn3)C2)cc1` [Example 1005, N-[4-(cyclopentylcarbamoyl)phenyl]-1-(pyridazin-3-yl)azetidine-3-carboxamide]: 0.592 µM; `O=C(NCc1ccccc1)c1ccc(NC(=O)C2CN(c3cccnn3)C2)cc1` [Example 1006, N-[4-(benzylcarbamoyl)phenyl]-1-(pyridazin-3-yl)azetidine-3-carboxamide]: 0.00536 µM.
On the same count and under the same terms, next, `O=C(Nc1cccc(F)c1)c1ccc(NC(=O)C2CN(c3cccnn3)C2)cc1` [Example 1007, N-{4-[(3-fluorophenyl)carbamoyl]phenyl}-1-(pyridazin-3-yl)azetidine-3-carboxamide]: 0.0567 µM; `CCCNC(=O)c1ccc(NC(=O)C2CN(c3cccnn3)C2)cc1` [Example 1008, N-[4-(propylcarbamoyl)phenyl]-1-(pyridazin-3-yl)azetidine-3-carboxamide]: 0.299 µM.
On to `O=C(Nc1ccc(F)cc1)c1ccc(NC(=O)C2CN(c3cccnn3)C2)cc1` [Example 1009, N-{4-[(4-fluorophenyl)carbamoyl]phenyl}-1-(pyridazin-3-yl)azetidine-3-carboxamide], for which the IC50 in experiment [1] is 0.0818 µM.
For `O=C(Nc1ccccc1F)c1ccc(NC(=O)C2CN(c3cccnn3)C2)cc1` [Example 1010, N-{4-[(2-fluorophenyl)carbamoyl]phenyl}-1-(pyridazin-3-yl)azetidine-3-carboxamide], the IC50 in experiment [1] turned out to be 0.0709 µM.
`CC1(NC(=O)c2ccc(NC(=O)C3CN(c4cccnn4)C3)cc2)CCC1` [Example 1011, N-{4-[(1-methylcyclobutyl)carbamoyl]phenyl}-1-(pyridazin-3-yl)azetidine-3-carboxamide]: in experiment [1], the IC50 came to 0.113 µM.
On the same count and under the same terms, the same measure for `C=CCNC(=O)c1ccc(NC(=O)C2CN(c3cccnn3)C2)cc1` [Example 1012, N-[4-(prop-2-en-1-ylcarbamoyl)phenyl]-1-(pyridazin-3-yl)azetidine-3-carboxamide]: 0.782 µM.
Take `CC(C)(C)C(=O)N1CCC(c2ccc(C(=O)N[C@H]3CCN(c4cccnn4)C3)s2)CC1` [Example 1013, 5-[1-(2,2-dimethylpropanoyl)piperidin-4-yl]-N-[(3S)-1-(pyridazin-3-yl)pyrrolidin-3-yl]thiophene-2-carboxamide]: the IC50 in experiment [1] is 0.213 µM.
`CC(C)(C)CC(=O)N1CCC(c2ccc(C(=O)N[C@H]3CCN(c4cccnn4)C3)s2)CC1` [Example 1014, 5-[1-(3,3-dimethylbutanoyl)piperidin-4-yl]-N-[(3S)-1-(pyridazin-3-yl)pyrrolidin-3-yl]thiophene-2-carboxamide]: in experiment [1], the IC50 stood at 0.219 µM.
The same measure, in the same setting: the same measure for `CCC(C)(C)C(=O)N1CCC(c2ccc(C(=O)N[C@H]3CCN(c4cccnn4)C3)s2)CC1` [Example 1015, 5-[1-(2,2-dimethylbutanoyl)piperidin-4-yl]-N-[(3S)-1-(pyridazin-3-yl)pyrrolidin-3-yl]thiophene-2-carboxamide]: 0.0901 µM; for `CC1(C(=O)N2CCC(c3ccc(C(=O)N[C@H]4CCN(c5cccnn5)C4)s3)CC2)CC1` [Example 1016, 5-{1-[(1-methylcyclopropyl)carbonyl]piperidin-4-yl}-N-[(3S)-1-(pyridazin-3-yl)pyrrolidin-3-yl]thiophene-2-carboxamide]: 0.212 µM.
Still for that read-out and setting: the same measure for `O=C(N[C@H]1CCN(c2cccnn2)C1)c1ccc(C2CCN(C(=O)CC(F)(F)F)CC2)s1` [Example 1017, N-[(3S)-1-(pyridazin-3-yl)pyrrolidin-3-yl]-5-[1-(3,3,3-trifluoropropanoyl)piperidin-4-yl]thiophene-2-carboxamide]: 0.752 µM; for `O=C(N[C@H]1CCN(c2cccnn2)C1)c1ccc(C2CCN(C(=O)CC3CC3)CC2)s1` [Example 1018, 5-[1-(cyclopropylacetyl)piperidin-4-yl]-N-[(3S)-1-(pyridazin-3-yl)pyrrolidin-3-yl]thiophene-2-carboxamide]: 0.716 µM; for `O=C(N[C@H]1CCN(c2cccnn2)C1)c1ccc(C2CCN(C(=O)CC3CC4CCC3C4)CC2)s1` (stereo partly drawn) [Example 1019, 5-[1-(bicyclo[2.2.1]hept-2-ylacetyl)piperidin-4-yl]-N-[(3S)-1-(pyridazin-3-yl)pyrrolidin-3-yl]thiophene-2-carboxamide]: 2.46 µM.
Still for that read-out and setting: next, `O=C(N[C@H]1CCOC1)c1ccc(NC(=O)C2CN(c3cccnn3)C2)cc1` [Example 1020, 1-(pyridazin-3-yl)-N-{4-[(3S)-tetrahydrofuran-3-ylcarbamoyl]phenyl}azetidine-3-carboxamide]: 7.27 µM; `CN(C)CCc1ccc(NC(=O)c2ccc(NC(=O)C3CN(c4cccnn4)C3)cc2)cc1` [Example 1021, N-[4-({4-[2-(dimethylamino)ethyl]phenyl}carbamoyl)phenyl]-1-(pyridazin-3-yl)azetidine-3-carboxamide]: 0.0477 µM; `O=C(N[C@@H]1CCOC1)c1ccc(NC(=O)C2CN(c3cccnn3)C2)cc1` [Example 1022, 1-(pyridazin-3-yl)-N-{4-[(3R)-tetrahydrofuran-3-ylcarbamoyl]phenyl}azetidine-3-carboxamide]: 8.16 µM.
For the compound `COCCNC(=O)c1ccc(NC(=O)C2CN(c3cccnn3)C2)cc1` [Example 1023, N-{4-[(2-methoxyethyl)carbamoyl]phenyl}-1-(pyridazin-3-yl)azetidine-3-carboxamide], the IC50 in experiment [1] was 0.508 µM.
Consider `O=C(/C=C/c1cccnc1)NCCCCC1CCN(C(=O)c2ccccc2)CC1` [FK866], for which, in experiment [2], the “manifestations of experimental autoimmune encephalomyelitis (EAE)” value is reported as “ameliorated the manifestations”. Moreover, the “efficacy in animal models of arthritis (collagen-induced arthritis)” value in experiment [3] is on record as “efficacious”. Further, in experiment [4], the “apoptosis of activated T cells” value is “induce apoptosis” and the “proliferation of activated T cells” value is given as “selectively block proliferation”.
